Source: ChEMBL document CHEMBL1201862, “PubChem BioAssay data set” (2004)
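Each compound was tested at five concentrations against cells in 96-well plates for 48 hours. GI50 marks 50% less growth.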 Active and inactive are the calls of the source. No stated cut-off is given here; in the data, active = GI50 up to about 1.1 µM and inactive = higher.

Key:
Test in all cases: NCI tumour cell line growth inhibition, 48 h
[1] = test system: NCI-H522
[2] = test system: KM12
[3] = test system: SW-620
[4] = test system: COLO 205
[5] = test system: OVCAR-8
[6] = test system: IGROV-1
[7] = test system: U-251
[8] = test system: A498
[9] = test system: SK-MEL-5
[10] = test system: SNB-75
[11] = test system: Hs-578T
[12] = test system: NCI-H226
[13] = test system: MDA-MB-231
[14] = test system: 786-0
[15] = test system: BT-549
[16] = test system: K562
[17] = test system: UACC-257
[18] = test system: HCT-116
[19] = test system: Malme-3M
[20] = test system: NCI-H23

| SMILES | GI50 [1] | GI50 [2] | GI50 [3] | GI50 [4] | GI50 [5] | GI50 [6] | GI50 [7] | GI50 [8] | GI50 [9] | GI50 [10] | GI50 [11] | GI50 [12] | GI50 [13] | GI50 [14] | GI50 [15] | GI50 [16] | GI50 [17] | GI50 [18] | GI50 [19] | GI50 [20] |
| --- | --- | --- | --- | --- | --- | --- | --- | --- | --- | --- | --- | --- | --- | --- | --- | --- | --- | --- | --- | --- |
| COc1ccc(C(CC(=O)c2ccc(O)cc2)C(C(=O)c2ccc(O)cc2)C(c2ccc(OC)cc2)C2C(=O)NC(=S)NC2=O)cc1 (stereo not given) | 14.9 µM (inactive) | 16.6 µM (inactive) | 23.1 µM (inactive) | 16 µM (inactive) | 24.8 µM (inactive) | 15.5 µM (inactive) | 24.5 µM (inactive) | 38.9 µM (inactive) | 21.5 µM (inactive) | 25.8 µM (inactive) | 26.7 µM (inactive) | 18.7 µM (inactive) | 20.7 µM (inactive) | 20.6 µM (inactive) | 18.5 µM (inactive) | 30.5 µM (inactive) | 17.5 µM (inactive) | 16.8 µM (inactive) |  |  |
| COc1cccc(Nc2n[nH]c(NS(=O)(=O)c3cc(C)c(Cl)cc3S)n2)c1 | > 100 µM (inactive) | > 100 µM (inactive) | > 100 µM (inactive) | > 100 µM (inactive) | > 100 µM (inactive) | > 100 µM (inactive) | > 100 µM (inactive) | > 100 µM (inactive) | > 100 µM (inactive) | > 100 µM (inactive) | > 100 µM (inactive) | > 100 µM (inactive) | > 100 µM (inactive) | > 100 µM (inactive) | > 100 µM (inactive) | > 100 µM (inactive) | > 100 µM (inactive) | > 100 µM (inactive) | > 100 µM (inactive) | > 100 µM (inactive) |
| OCCCCn1cc(Cn2ncc3c(O)ncnc32)nn1 | > 100 µM (inactive) | > 100 µM (inactive) | > 100 µM (inactive) | > 100 µM (inactive) | > 100 µM (inactive) | > 100 µM (inactive) | > 100 µM (inactive) | > 100 µM (inactive) | > 100 µM (inactive) |  | > 100 µM (inactive) | > 100 µM (inactive) | > 100 µM (inactive) | > 100 µM (inactive) | > 100 µM (inactive) | > 100 µM (inactive) | > 100 µM (inactive) | > 100 µM (inactive) | > 100 µM (inactive) | > 100 µM (inactive) |
| CCCCSc1n/c(=C\c2ccc(N(C)C)cc2)c2nnnn12 | > 100 µM (inactive) | > 100 µM (inactive) | > 100 µM (inactive) | > 100 µM (inactive) | > 100 µM (inactive) | > 100 µM (inactive) | > 100 µM (inactive) | > 100 µM (inactive) |  | > 100 µM (inactive) | > 100 µM (inactive) | > 100 µM (inactive) | > 100 µM (inactive) | > 100 µM (inactive) | > 100 µM (inactive) | > 100 µM (inactive) | > 100 µM (inactive) | > 100 µM (inactive) | > 100 µM (inactive) | > 100 µM (inactive) |
| CCC1(OC(=O)CN)C(=O)OCc2c1cc1n(c2=O)Cc2cc3ccccc3nc2-1 (stereo not given) | 0.0188 µM (active) | 0.128 µM (active) | 0.067 µM (active) | 0.0491 µM (active) |  | 0.0411 µM (active) | 0.01 µM (active) | 0.0512 µM (active) |  | 0.0213 µM (active) | 6.14 µM (inactive) | 0.0134 µM (active) | 0.38 µM (active) | 0.01 µM (active) | 0.0593 µM (active) | 0.0334 µM (active) | 0.0353 µM (active) |  | 0.151 µM (active) | 0.01 µM (active) |
| O=CN1CCN(C(=O)c2ccc(Cl)cc2Cl)C1=S | 20.3 µM (inactive) | 43.2 µM (inactive) | 77.8 µM (inactive) | > 100 µM (inactive) | > 100 µM (inactive) | > 100 µM (inactive) | > 100 µM (inactive) | 42 µM (inactive) |  | 21 µM (inactive) | 32.4 µM (inactive) | > 100 µM (inactive) | > 100 µM (inactive) | 30.7 µM (inactive) | > 100 µM (inactive) | 85.5 µM (inactive) | > 100 µM (inactive) | > 100 µM (inactive) | > 100 µM (inactive) | > 100 µM (inactive) |
| CC1=NN(C(=O)c2ccccc2O)C(c2ccccc2Cl)C1C(=O)Nc1ccccc1 (stereo not given) | 0.119 µM (active) | 0.107 µM (active) | 0.388 µM (active) | 5.26 µM (inactive) | 0.0986 µM (active) | < 0.028 µM (active) | < 0.0213 µM (active) | < 0.01 µM (active) | 0.167 µM (active) |  | < 0.01 µM (active) | 0.0614 µM (active) | 0.647 µM (active) | < 0.0457 µM (active) | < 0.0256 µM (active) | < 0.0235 µM (active) | 0.283 µM (active) | < 0.0196 µM (active) | 0.0565 µM (active) | < 0.0378 µM (active) |
| COCc1nc(N)nc(N2N=C(C)CC2(C)C)n1 | > 100 µM (inactive) | > 100 µM (inactive) | > 100 µM (inactive) | > 100 µM (inactive) | > 100 µM (inactive) | > 100 µM (inactive) | > 100 µM (inactive) | > 100 µM (inactive) | > 100 µM (inactive) | > 100 µM (inactive) | > 100 µM (inactive) | > 100 µM (inactive) | > 100 µM (inactive) | > 100 µM (inactive) | > 100 µM (inactive) | > 100 µM (inactive) | > 100 µM (inactive) | > 100 µM (inactive) |  | > 100 µM (inactive) |
| COc1cc(C(=O)O)c([N+](=O)[O-])c(OC)c1OC | > 100 µM (inactive) | > 100 µM (inactive) | > 100 µM (inactive) | > 100 µM (inactive) | > 100 µM (inactive) | > 100 µM (inactive) | > 100 µM (inactive) | > 100 µM (inactive) | > 100 µM (inactive) | > 100 µM (inactive) | > 100 µM (inactive) | > 100 µM (inactive) | > 100 µM (inactive) | > 100 µM (inactive) | > 100 µM (inactive) |  | > 100 µM (inactive) | > 100 µM (inactive) | > 100 µM (inactive) | > 100 µM (inactive) |
| CC(CCC(=O)O)(c1ccc(O)cc1)c1ccc(O)cc1 | > 100 µM (inactive) | > 100 µM (inactive) | > 100 µM (inactive) |  | > 100 µM (inactive) | > 100 µM (inactive) | > 100 µM (inactive) | > 100 µM (inactive) | > 100 µM (inactive) |  | > 100 µM (inactive) | > 100 µM (inactive) | > 100 µM (inactive) | > 100 µM (inactive) | > 100 µM (inactive) | > 100 µM (inactive) | > 100 µM (inactive) | > 100 µM (inactive) | > 100 µM (inactive) | > 100 µM (inactive) |
| CC1=NN(c2nc(N)nc(-c3cc4ccccc4oc3=N)n2)C(C)(C)C1 | 20.6 µM (inactive) | 17.7 µM (inactive) |  | 17 µM (inactive) | 26.1 µM (inactive) | 15.3 µM (inactive) | 27 µM (inactive) | 27.7 µM (inactive) | 16.8 µM (inactive) |  | 20.5 µM (inactive) | 14.7 µM (inactive) | 20.1 µM (inactive) | 15.3 µM (inactive) | 26.7 µM (inactive) | 18.9 µM (inactive) | 16.7 µM (inactive) | 19.6 µM (inactive) | 17.5 µM (inactive) | 16.1 µM (inactive) |
